Here are results for four compounds from patent publication US20260200943A1, “COMPOUNDS FOR TREATING CANCER” (Genesis Therapeutics, Inc., priority 2022, published 2026).

SMILES strings stand for the structures. Some results are limits rather than exact numbers.

Common to all, as to assay type: biochemical
The target in test [1] is T1, CDK2/CyclinA2 (Homo sapiens, UniProt P24941).
T1 construct: Wild-type, full length CDK2 in complex with wildtype, full length CyclinA2: Carna Cat #04-103; purchased Carna 04-103
Description: CDK2/CyclinA2 ChEF Assay (Table A). The settings on record: for Ki: 10xKm, read-out: CDK2/CCNA2 ChEF 10xKm Ki: Average Ki. How it is done:
500 nL of 50× compound in 100% DMSO is added to a 384-well low volume, white assay plate. 19.5 μL of 1.3×CDK2/CyclinA2 (Wild-type, full length CDK2 in complex with wildtype, full length CyclinA2: Carna Cat #04-103 diluted in assay buffer (50 mM Hepes, 0.01% Brij-35, 10 mM MgCl2, 0.5 mM EGTA, 1% Glycerol, and 1.2 mM DTT) is added to the plates on top of the compound and pre-incubated for 30 minutes at room temperature. Following the incubation, 5 μL of 5×Sox-chromophore (CSox) labeled peptide substrate (AQT0255, AssayQuant) & ATP diluted in assay buffer is added to the plate to initiate the reaction. The assay is incubated at room temperature for 45 min after initiation. The CSox peptide substrate is phosphorylated by CDK2/A2 upon ATP hydrolysis.
(§1) The fluorescent intensity measurement of the assay plate for all assays described above is read on a microplate reader once the assay is initiated and again at the completion of the assay. Phosphorylation of the CSox-based peptide substrate sensor results in an immediate increase in fluorescence. These raw fluorescence intensity values are normalized to calculate percent inhibition, which are fit to a four-parameter logistic curve and IC50 values are calculated. IC50 values are converted to Ki using substrate, KM^app values, and the Cheng-Prusoff equation.

Test [2] has as its target T2, CDK1/CyclinB1 (Homo sapiens, UniProt P06493).
T2 construct: Wild-type, full length CDK1 in complex with wildtype, full length CyclinB1: Carna Cat #04-102; purchased Carna 04-102
Briefly: CDK1/Cyclin B1 Mobility Shift Assay (Caliper, Table B). As to conditions: read-out: CDK1/CCNB1 Caliper Ki: Average Ki. Here is the method: 10 nL of 2000× compound in 100% DMSO is added to a 384-well polypropylene assay plate. 15 μL of 1.3×CDK1/B1 and 1.3× fluorescent substrate (Wild-type, full length CDK1 in complex with wildtype, full length CyclinB1: Carna Cat #04-102 and FL-Peptide 29: PerkinElmer Cat #760429) diluted in kinase buffer (50 mM Hepes, 0.01% Brij-35, 10 mM MgCl2, 1 mM EGTA, 0.05% BSA, and 2 mM DTT) is added to the plates on top of the compound, mixed, and pre-incubated for 30 minutes at room temperature. The fluorescently labeled peptide substrate is phosphorylated by CDK1/B1 upon ATP hydrolysis. Following the incubation, 5 μL of 4×ATP diluted in kinase buffer is added to the plate to initiate the reaction. Following the 30-minute incubation, the reaction is stopped by adding 75 μL of stopping buffer containing 0.5 M EDTA.
(§2) The assay plate is then read on a Lab Chip EZ Reader which separates the fluorescently labeled substrate and product peptides through a mobility difference. The phosphorylation of the substrate imparts a negative charge, which allows differences in separation as both are pulled through the microfluidic chip. The ratio of substrate and product values are used to generate percent conversion. These raw percent conversion values are normalized to calculate percent inhibition, which are fit to a four-parameter logistic curve and IC50 values are calculated. IC50 values are converted to Ki using substrate, Kmapp values, and the Cheng-Prusoff equation.

In test [3] the target is T2, CDK1/CyclinB1. Description: CDK1/CyclinB1 ChEF Assay (Table A).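 Note: Ki reported in nM.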 The settings on record: read-out: CDK1/CCNB1 ChEF Ki: Average Ki. How it is done:
500 nL of 50× compound in 100% DMSO is added to a 384-well low volume, white assay plate. 19.5 μL of 1.3×CDK1/CyclinB1 (Wild-type, full length CDK1 in complex with wildtype, full length CyclinB1: Carna Cat #04-102) diluted in assay buffer (50 mM Hepes, 0.01% Brij-35, 10 mM MgCl2, 0.5 mM EGTA, 1% Glycerol, and 1.2 mM DTT) is added to the plates on top of the compound and pre-incubated for 30 minutes at room temperature. Following the incubation, 5 μL of 5×Sox-chromophore (CSox) labeled peptide substrate (AQT0297, AssayQuant) & ATP diluted in assay buffer is added to the plate to initiate the reaction. The assay is incubated at room temperature for 30 min after initiation. The CSox peptide substrate is phosphorylated by CDK1/B1 upon ATP hydrolysis.
as §1

In test [4] the target is T1, CDK2/CyclinA2. Description: CDK2/Cyclin A2 Mobility Shift Assay (Caliper, Table B). The settings on record: for Ki: Caliper mobility shift, 10xKm, read-out: CDK2/CCNA2 Caliper 10xKm Ki: Average Ki. Here is the method:
10 nL of 2000× compound in 100% DMSO is added to a 384-well polypropylene assay plate. 15 μL of 1.3×CDK2/A2 and 1.3× fluorescent substrate (Wild-type, full length CDK2 in complex with wildtype, full length CyclinA2: Carna Cat #04-103 and FL-Peptide 18: PerkinElmer Cat #760362) diluted in kinase buffer (50 mM Hepes, 0.01% Brij-35, 10 mM MgCl2, 1 mM EGTA, 0.05% BSA, and 2 mM DTT) is added to the plates on top of the compound, mixed, and pre-incubated for 30 minutes at room temperature. The fluorescently labeled peptide substrate is phosphorylated by CDK2/A2 upon ATP hydrolysis. Following the incubation, 5 μL of 4×ATP diluted in kinase buffer is added to the plate to initiate the reaction. Following the 30-minute incubation, the reaction is stopped by adding 75 μL of stopping buffer containing 0.5 M EDTA.
as §2, with “Ki through” for “Ki”, “substrate and Km^app” for “substrate, Kmapp”

T2 sequence (P06493 whole entry): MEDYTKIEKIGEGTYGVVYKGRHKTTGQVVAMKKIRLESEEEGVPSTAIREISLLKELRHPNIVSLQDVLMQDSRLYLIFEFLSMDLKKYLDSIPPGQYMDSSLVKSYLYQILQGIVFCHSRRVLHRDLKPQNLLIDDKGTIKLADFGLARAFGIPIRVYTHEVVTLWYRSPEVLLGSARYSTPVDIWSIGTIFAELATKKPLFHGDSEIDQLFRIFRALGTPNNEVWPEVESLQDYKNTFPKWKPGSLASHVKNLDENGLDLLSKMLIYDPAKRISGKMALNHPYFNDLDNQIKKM
T2 sequence (P14635 whole entry partner): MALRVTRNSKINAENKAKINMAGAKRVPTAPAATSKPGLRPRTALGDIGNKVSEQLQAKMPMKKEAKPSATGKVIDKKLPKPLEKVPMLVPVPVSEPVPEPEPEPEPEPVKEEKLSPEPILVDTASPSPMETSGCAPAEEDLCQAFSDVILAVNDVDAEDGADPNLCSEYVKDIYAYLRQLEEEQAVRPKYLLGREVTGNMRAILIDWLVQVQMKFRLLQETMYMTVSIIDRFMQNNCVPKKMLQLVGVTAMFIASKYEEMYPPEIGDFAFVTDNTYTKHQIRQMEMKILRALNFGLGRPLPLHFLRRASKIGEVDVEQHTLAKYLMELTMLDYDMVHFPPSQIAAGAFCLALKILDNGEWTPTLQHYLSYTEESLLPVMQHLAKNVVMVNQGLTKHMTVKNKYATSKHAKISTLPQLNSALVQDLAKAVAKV

In the case of `O=C1NCCCCNS(=O)(=O)c2ccc(c(F)c2)Nc2cc([nH]n2)[C@H]2CC[C@H](C2)O1` [Compound 99, (1^1S, 1^3R,Z)-4^2-fluoro-2^1H-13-oxa-5-thia-3,6,11-triaza-2(5,3)-pyrazola-4(1,4)-benzena-1(1,3)-cyclopentanacyclotridecaphan-12-one 5,5-dioxide], at CDK2/CyclinA2 [1], the Ki is below 1 nM and the “CDK2/CCNA2 ChEF 10xKm Ki: CDK2/A2 Selectivity over CDK9/T1” value is listed as “A (A>10)”. The Ki on CDK1/CyclinB1 [2] was in the range of 1 to 25 nM. In addition, on CDK1/CyclinB1 [3], the Ki fell in the range of 1 to 25 nM. Further, at CDK2/CyclinA2 [4], the Ki was below 1 nM, the “CDK2/CCNA2 Caliper 10xKm Ki: CDK2/A2 Selectivity over CDK1/B1” value was “A (A>10)”, the “CDK2/CCNA2 Caliper 10xKm Ki: CDK2/A2 Selectivity over CDK6/D3” value was “A (A>10)” and the “CDK2/CCNA2 Caliper 10xKm Ki: CDK2/A2 Selectivity over CDK9” value is recorded as “A (A>10)”.

In the case of `CN1CCNC(=O)O[C@@H]2CC[C@@H](C2)c2cc(n[nH]2)Nc2ccc(cc2F)S(=O)(=O)NCC1` [Compound 100, (1^1S, 1^3R,Z)-4^2-fluoro-9-methyl-2^1H-14-oxa-5-thia-3,6,9,12-tetraaza-2(5,3)-pyrazola-4(1,4)-benzena-1(1,3)-cyclopentanacyclotetradecaphan-13-one 5,5-dioxide], the Ki on CDK2/CyclinA2 [1] was 1 to 25 nM; at CDK1/CyclinB1 [2] it was at least 100 nM; on CDK1/CyclinB1 [3], 25 to 100 nM; at CDK2/CyclinA2 [4], 1 to 25 nM. Also, the “CDK2/CCNA2 ChEF 10xKm Ki: CDK2/A2 Selectivity over CDK9/T1” value at CDK2/CyclinA2 [1] was “A (A>10)”. The “CDK2/CCNA2 Caliper 10xKm Ki: CDK2/A2 Selectivity over CDK1/B1” value on CDK2/CyclinA2 [4] is given as “A (A>10)”. Also, the “CDK2/CCNA2 Caliper 10xKm Ki: CDK2/A2 Selectivity over CDK9” value on CDK2/CyclinA2 [4] is “A (A>10)”.

For `CC1(C)CCCNS(=O)(=O)c2ccc(c(F)c2)Nc2cc([nH]n2)[C@H]2CC[C@H](C2)OC(=O)N1` [Compound 101, (1^1S,1^3R,Z)-4^2-fluoro-10,10-dimethyl-2^1H-13-oxa-5-thia-3,6,11-triaza-2(5,3)-pyrazola-4(1,4)-benzena-1(1,3)-cyclopentanacyclotridecaphan-12-one 5,5-dioxide], at CDK2/CyclinA2 [1], the Ki was 1 to 25 nM and the “CDK2/CCNA2 ChEF 10xKm Ki: CDK2/A2 Selectivity over CDK9/T1” value is “A (A>10)”. The Ki at CDK1/CyclinB1 [2] was at least 100 nM. For the same compound, the Ki on CDK1/CyclinB1 [3] lay within 25 to 100 nM. At CDK2/CyclinA2 [4], the Ki was 1 to 25 nM, the “CDK2/CCNA2 Caliper 10xKm Ki: CDK2/A2 Selectivity over CDK1/B1” value was “A (A>10)” and the “CDK2/CCNA2 Caliper 10xKm Ki: CDK2/A2 Selectivity over CDK9” value is reported as “A (A>10)”.

As for `O=C1NCC=CCNS(=O)(=O)c2ccc(c(F)c2)Nc2cc([nH]n2)[C@H]2CC[C@H](C2)O1` [Compound 102, (1^1S,1^3R,2^4Z)-4^2-fluoro-2^1H-13-oxa-5-thia-3,6,11-triaza-2(5,3)-pyrazola-4(1,4)-benzena-1(1,3)-cyclopentanacyclotridecaphan-8-en-12-one 5,5-dioxide], on CDK2/CyclinA2 [1], the Ki was below 1 nM and the “CDK2/CCNA2 ChEF 10xKm Ki: CDK2/A2 Selectivity over CDK9/T1” value was “A (A>10)”. Besides, the Ki on CDK1/CyclinB1 [2] fell in the range of 25 to 100 nM. At CDK1/CyclinB1 [3], the Ki fell in the range of 1 to 25 nM. On CDK2/CyclinA2 [4], the Ki is below 1 nM, the “CDK2/CCNA2 Caliper 10xKm Ki: CDK2/A2 Selectivity over CDK1/B1” value is reported as “A (A>10)”, the “CDK2/CCNA2 Caliper 10xKm Ki: CDK2/A2 Selectivity over CDK6/D3” value is reported as “A (A>10)” and the “CDK2/CCNA2 Caliper 10xKm Ki: CDK2/A2 Selectivity over CDK9” value is listed as “A (A>10)”.
